Results reported in US9273058B2 (BRISTOL-MYERS SQUIBB COMPANY, priority 2013, dated 2016).

Target: CK1δ (Homo sapiens, UniProt P48730)
Assay: CK1δ kinase assay (Caliper LabChip electrophoretic separation of fluoresceinated peptide substrate and product)
Format: biochemical
Conditions: 200 pM CK1δ, 50 μM ATP, 1.5 μM peptide, 22 hours at room temperature; read-out: CK1δ IC50 range
Method: CK1ε and CK1δ Kinase Assays
The kinase assay was performed in V-bottom 384-well plates. […] The reaction was incubated at room temperature for 22 hours and terminated by adding 45 μl of 35 mM EDTA to each sample. The reaction mixture was analyzed on the Caliper LABCHIP®3000 (Caliper, Hopkinton, Mass.) by electrophoretic separation of the unphosphorylated substrate and phosphorylated product. […] Compounds were dissolved at 10 mM in dimethylsulfoxide (DMSO) and evaluated at eleven concentrations. IC50 values were derived by non-linear regression analysis.

Chain of CK1δ (P48730 whole entry): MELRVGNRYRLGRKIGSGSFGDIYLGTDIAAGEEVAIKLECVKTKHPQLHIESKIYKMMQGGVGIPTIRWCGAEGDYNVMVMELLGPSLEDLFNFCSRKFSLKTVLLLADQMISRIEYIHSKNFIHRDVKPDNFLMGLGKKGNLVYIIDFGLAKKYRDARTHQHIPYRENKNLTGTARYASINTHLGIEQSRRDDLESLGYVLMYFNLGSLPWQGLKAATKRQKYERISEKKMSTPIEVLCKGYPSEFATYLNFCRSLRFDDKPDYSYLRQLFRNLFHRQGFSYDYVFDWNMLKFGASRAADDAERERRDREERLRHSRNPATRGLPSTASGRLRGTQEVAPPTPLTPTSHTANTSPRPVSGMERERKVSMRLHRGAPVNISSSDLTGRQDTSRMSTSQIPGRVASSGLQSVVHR

Row | IC50 | Molecule
1 | 0.01 to 10 nM | NC(=O)c1c(-c2ccc(F)c(Cl)c2)nn2c1CN(C(=O)NC13C4C5C1C1C3C4C51F)CC2 (stereo not shown) [Compound A71, N^5-(4-Fluorocuban-1-yl)-2-(3-chloro-4-fluorophenyl)-6,7-dihydropyrazolo[1,5-a]pyrazine-3,5(4H)-dicarboxamide]
2 | 0.01 to 10 nM | N#CC1(NC(=O)N2CCn3nc(-c4cccc(Cl)c4)c(C(N)=O)c3C2)CC1 [Compound A45, 2-(3-Chlorophenyl)-N^5-(1-cyanocyclopropyl)-6,7-dihydropyrazolo[1,5-a]pyrazine-3,5(4H)-dicarboxamide]
3 | 0.01 to 10 nM | COC12CCC(NC(=O)N3CCn4nc(-c5ccc(F)c(Cl)c5)c(C(N)=O)c4C3)(CC1)CC2 [Compound A59, 2-(3-Chloro-4-fluorophenyl)-N^5-(4-methoxybicyclo[2.2.2]octan-1-yl)-6,7-dihydropyrazolo[1,5-a]pyrazine-3,5(4H)-dicarboxamide]
4 | 0.01 to 10 nM | CC(C)(C)NC(=O)N1Cc2c(C(N)=O)c(-c3cccc(Cl)c3)nn2C(CO)C1 (stereo not shown) [Compound A2, N^5-(tert-Butyl)-2-(3-chlorophenyl)-7-(hydroxymethyl)-6,7-dihydropyrazolo[1,5-a] pyrazine-3,5(4H)-dicarboxamide]
5 | 0.01 to 10 nM | N#Cc1ccc(C23CCC(NC(=O)N4CCn5nc(-c6cccc(Cl)c6)c(C(N)=O)c5C4)(CC2)CC3)cc1 [Compound A74, 2-(3-Chlorophenyl)-N^5-(4-(4-cyanophenyl)bicyclo[2.2.2]octan-1-yl)-6,7-dihydropyrazolo[1,5-a]pyrazine-3,5(4H)-dicarboxamide]
6 | 0.01 to 10 nM | N#CC12C3C4C1C1C2C3C41NC(=O)N1CCn2nc(-c3ccc(F)c(Cl)c3)c(C(N)=O)c2C1 (stereo not shown) [Compound A70, N^5-(4-Cyanocuban-1-yl)-2-(3-chloro-4-fluorophenyl)-6,7-dihydropyrazolo[1,5-a]pyrazine-3,5(4H)-dicarboxamide]
7 | 10 to 100 nM | 2-(3-Chloro-4-fluorophenyl)-N^5-(3,3-difluorocyclobutyl)-7-isopropyl-6,7-dihydropyrazolo[1,5-a]pyrazine-3,5(4H)-dicarboxamide [Compound A123]
8 | 0.01 to 10 nM | NC(=O)c1c(-c2cccc(Cl)c2)nn2c1CN(C(=O)NC13CCC(F)(CC1)CC3)CC2 [Compound A75, 2-(3-Chlorophenyl)-N^5-(4-fluorobicyclo[2.2.2]octan-1-yl)-6,7-dihydropyrazolo[1,5-a]pyrazine-3,5(4H)-dicarboxamide]
9 | 0.01 to 10 nM | N#CC1(NC(=O)N2CCn3nc(-c4cccc(Cl)c4)c(C(N)=O)c3C2)CCC1 [Compound A43, 2-(3-Chlorophenyl)-N^5-(1-cyanocyclobutyl)-6,7-dihydropyrazolo[1,5-a]pyrazine-3,5(4H)-dicarboxamide]
10 | 0.01 to 10 nM | NC(=O)c1c(-c2cccc(Cl)c2)nn2c1CN(C(=O)NC(CF)(CF)CF)CC2 [Compound A41, 2-(3-Chlorophenyl)-N^5-(1,3-difluoro-2-(fluoromethyl)propan-2-yl)-6,7-dihydropyrazolo[1,5-a] pyrazine-3,5(4H)-dicarboxamide]
11 | 0.01 to 10 nM | NC(=O)c1c(-c2ccc(F)c(Cl)c2)nn2c1CN(C(=O)NC13C4C5C6C4C1C6C53)CC2 (stereo not shown) [Compound A72, N^5-(Cuban-1-yl)-2-(3-chloro-4-fluorophenyl)-6,7-dihydropyrazolo[1,5-a]pyrazine-3,5(4H)-dicarboxamide]
12 | 0.01 to 10 nM | COC12CCC(NC(=O)N3CCn4nc(-c5ccc(F)c(Cl)c5)c(C(N)=O)c4C3)(CC1)C(=O)C2 [Compound A60, 2-(3-Chloro-4-fluorophenyl)-N^5-(4-methoxy-2-oxobicyclo[2.2.2]octan-1-yl)-6,7-dihydropyrazolo[1,5-a]pyrazine-3,5(4H)-dicarboxamide]
13 | 0.01 to 10 nM | CC(C)(C)NC(=O)N1Cc2c(C(N)=O)c(-c3ccc(F)c(Cl)c3)nn2C(CCO)C1 (single isomer, unassigned) [Compound A97, N^5-(tert-Butyl)-2-(3-chloro-4-fluorophenyl)-7-(2-hydroxyethyl)-6,7-dihydropyrazolo[1,5-a]pyrazine-3,5(4H)-dicarboxamide]
14 | 0.01 to 10 nM | CC(C)(C)NC(=O)N1Cc2c(C(N)=O)c(-c3ccc(F)c(Cl)c3)nn2C(C(F)(F)F)C1 (single isomer, unassigned) [Compound A128, N^5-(tert-Butyl)-2-(3-chloro-4-fluorophenyl)-7-(trifluoromethyl)-6,7-dihydropyrazolo[1,5-a]pyrazine-3,5(4H)-dicarboxamide]

The next lines start with the molecule.

Row | Molecule | IC50
15 | NC(=O)c1c(-c2ccc(F)c(Cl)c2)nn2c1CN(C(=O)N[C@H]1C[C@@H]3[C@H](C1)C3(F)F)CC2 [Compound 198] | 0.01 to 10 nM
16 | CC(CF)(CF)NC(=O)N1CCn2nc(-c3cccc(Cl)c3)c(C(N)=O)c2C1 [Compound 211, 2-(3-Chlorophenyl)-N^5-(1,3-difluoro-2-methylpropan-2-yl)-6,7-dihydropyrazolo[1,5-a]pyrazine-3,5(4H)-dicarboxamide] | 0.01 to 10 nM
17 | CC(F)(F)C(C)(C)NC(=O)N1CCn2nc(-c3cccc(Cl)c3)c(C(N)=O)c2C1 [Compound 174, 2-(3-Chlorophenyl)-N^5-(3,3-difluoro-2-methylbutan-2-yl)-6,7-dihydropyrazolo[1,5-a] pyrazine-3,5(4H)-dicarboxamide] | 0.01 to 10 nM
18 | NC(=O)c1c(-c2ccc(Cl)c(Cl)c2)nn2c1CN(C(=O)N[C@@H]1CC[C@@H]1C(F)F)CC2 [Compound 240, 2-(3,4-Dichlorophenyl)-N^5-((1R,2S)-2-(difluoromethyl)cyclobutyl)-6,7-dihydropyrazolo[1,5-a] pyrazine-3,5(4H)-dicarboxamide] | 0.01 to 10 nM
19 | CO[C@H]1C[C@H](NC(=O)N2CCn3nc(-c4ccc(F)c(Cl)c4)c(C(N)=O)c3C2)C1 [Compound 192, 2-(3-Chloro-4-fluorophenyl)-N^5-((1r,3r)-3-methoxycyclobutyl)-6,7-dihydropyrazolo[1,5-a] pyrazine-3,5(4H)-dicarboxamide] | 0.01 to 10 nM
20 | CC(F)(F)C(C)(C)NC(=O)N1CCn2nc(-c3ccc(Cl)c(Cl)c3)c(C(N)=O)c2C1 [Compound 201, 2-(3,4-Dichlorophenyl)-N^5-(3,3-difluoro-2-methylbutan-2-yl)-6,7-dihydropyrazolo[1,5-a] pyrazine-3,5(4H)-dicarboxamide] | 0.01 to 10 nM
21 | NC(=O)c1c(-c2ccc(F)c(Cl)c2)nn2c1CN(C(=O)NC1(COC(F)F)CCC1)CC2 [Compound 223, 2-(3-Chloro-4-fluorophenyl)-N^5-(1-((difluoromethoxy)methyl)cyclobutyl)-6,7-dihydropyrazolo[1,5-a]pyrazine-3,5(4H)-dicarboxamide] | 0.01 to 10 nM
22 | NC(=O)c1c(-c2ccc(F)c(Cl)c2)nn2c1CN(C(=O)N[C@@H]1CC[C@@H]1C(F)F)CC2 [Compound 238, 2-(3-Chloro-4-fluorophenyl)-N^5-((1R,2S)-2-(difluoromethyl)cyclobutyl)-6,7-dihydropyrazolo[1,5-a]pyrazine-3,5(4H)-dicarboxamide] | 0.01 to 10 nM
23 | NC(=O)c1c(-c2cccc(Cl)c2)nn2c1CN(C(=O)NC1CC(C(F)F)C1)CC2 (stereo not shown) [Compound 257, 2-(3-Chlorophenyl)-N^5-(3-(difluoromethyl)cyclobutyl)-6,7-dihydropyrazolo[1,5-a]pyrazine-3,5(4H)-dicarboxamide] | 0.01 to 10 nM
24 | CCC1(NC(=O)N2CCn3nc(-c4ccc(Cl)c(Cl)c4)c(C(N)=O)c3C2)CC(F)(F)C1 [Compound 301, 2-(3,4-Dichlorophenyl)-N^5-(1-ethyl-3,3-difluorocyclobutyl)-6,7-dihydropyrazolo[1,5-a]pyrazine-3,5(4H)-dicarboxamide] | 0.01 to 10 nM
25 | CC(C)(O)[C@H](F)CNC(=O)N1CCn2nc(-c3cccc(Cl)c3)c(C(N)=O)c2C1 [Compound 337, (R)-2-(3-Chlorophenyl)-N^5-(2-fluoro-3-hydroxy-3-methylbutyl)-6,7-dihydropyrazolo[1,5-a]pyrazine-3,5(4H)-dicarboxamide] | 0.01 to 10 nM
26 | NC(=O)c1c(-c2ccc(F)c(Cl)c2)nn2c1CN(C(=O)NC1CC(C(F)F)C1)CC2 (single isomer, unassigned) [Compound 253, 2-(3-Chloro-4-fluorophenyl)-N^5-(3-(difluoromethyl)cyclobutyl)-6,7-dihydropyrazolo[1,5-a]pyrazine-3,5(4H)-dicarboxamide] | 0.01 to 10 nM
27 | CC(C)(NC(=O)N1CCn2nc(-c3ccc(Cl)c(Cl)c3)c(C(N)=O)c2C1)C1CC(F)(F)C1 [Compound 228, 2-(3,4-Dichlorophenyl)-N^5-(2-(3,3-difluorocyclobutyl)propan-2-yl)-6,7-dihydropyrazolo[1,5-a] pyrazine-3,5(4H)-dicarboxamide] | 0.01 to 10 nM
28 | NC(=O)c1c(-c2ccc(F)c(Cl)c2)nn2c1CN(C(=O)NC1CC(C(F)F)C1)CC2 (single isomer, unassigned) [Compound 252, 2-(3-Chloro-4-fluorophenyl)-N^5-(3-(difluoromethyl)cyclobutyl)-6,7-dihydropyrazolo[1,5-a]pyrazine-3,5(4H)-dicarboxamide] | 0.01 to 10 nM
29 | NC(=O)c1c(-c2ccc(F)c(Cl)c2)nn2c1CN(C(=O)N[C@@H]1C[C@@H]3[C@H](C1)C3(F)F)CC2 [Compound 197, 2-(3-Chloro-4-fluorophenyl)-N^5-((1R,3s,5S)-6,6-difluorobicyclo[3.1.0]hexan-3-yl)-6,7-dihydropyrazolo[1,5-a] pyrazine-3,5(4H)-dicarboxamide] | 0.01 to 10 nM
30 | CC1(CNC(=O)N2CCn3nc(-c4ccc(Cl)c(Cl)c4)c(C(N)=O)c3C2)CC(F)(F)C1 [Compound 231, 2-(3,4-Dichlorophenyl)-N^5-((3,3-difluoro-1-methylcyclobutyl)methyl)-6,7-dihydropyrazolo[1,5-a] pyrazine-3,5(4H)-dicarboxamide] | 0.01 to 10 nM
31 | NC(=O)c1c(-c2ccc(F)c(Cl)c2)nn2c1CN(C(=O)NCC1CCC(F)(F)CC1)CC2 [Compound 194, 2-(3-Chloro-4-fluorophenyl)-N^5-((4,4-difluorocyclohexyl)methyl)-6,7-dihydropyrazolo[1,5-a] pyrazine-3,5(4H)-dicarboxamide] | 0.01 to 10 nM
